Biological target: CDK2/Cyclin E1 full length (Homo sapiens (Human), UniProt P24941)
Assay: CDK2/Cyclin E1 full length mobility shift assay
Format: biochemical

| SMILES | Ki [nM] |
| --- | --- |
| COC[C@H](C)NC(=O)O[C@@H]1CC[C@H](c2cc(NC(=O)c3cc(OC)nn3C)n[nH]2)C1 [Example 518, (1R,3S)-3-(3-{[(3-methoxy-1-methyl-1H-pyrazol-5-yl)carbonyl]amino}-1H-pyrazol-5-yl)cyclopentyl [(2S)-1-methoxypropan-2-yl]carbamate] | 1.43 |
| Cc1cnc(CC(=O)Nc2cc([C@H]3CC[C@@H](OC(=O)NCCC(F)(F)F)C3)[nH]n2)s1 [Example 221, (1R,3S)-3-(3-{[(5-methyl-1,3-thiazol-2-yl)acetyl]amino}-1H-pyrazol-5-yl)cyclopentyl (3,3,3-trifluoropropyl)carbamate] | 1.73 |
| CC1(NC(=O)O[C@@H]2CC[C@H](c3cc(NC(=O)Cc4cc(C(F)(F)F)ccn4)n[nH]3)C2)CC1 [Example 444, (1R,3S)-3-[3-({[4-(trifluoromethyl)pyridin-2-yl]acetyl}amino)-1H-pyrazol-5-yl]cyclopentyl (1-methylcyclopropyl)carbamate] | 1.41 |
| CC(=O)N1CCC(CNC(=O)O[C@H]2CC[C@@H](c3cc(NC(=O)Cc4cc(F)cc(F)c4)n[nH]3)C2)CC1 [Example 582, (1S,3R)-3-(3-{[(3,5-difluorophenyl)acetyl]amino}-1H-pyrazol-5-yl)cyclopentyl [(1-acetylpiperidin-4-yl)methyl]carbamate] | 2.23 |
| CCC1CCN1C(=O)O[C@@H]1CC[C@H](c2cc(NC(=O)Cc3ncc(C)o3)n[nH]2)C1 (single isomer, unassigned) [Example 600] | 2.12 |
| CC[C@H](C)NC(=O)O[C@@H]1CC[C@H](c2cc(NC(=O)Cc3ccccc3S(C)(=N)=O)n[nH]2)C1 (single isomer, unassigned) [Example 368] | 0.41 |
| Cc1ccc(C(=O)Nc2cc([C@H]3CC[C@@H](OC(=O)NC(C)CC(F)(F)F)C3)[nH]n2)cn1 (single isomer, unassigned) [Example 69] | 4.26 |
| C[C@H]1[C@H](C#N)CN1C(=O)O[C@@H]1CC[C@H](c2cc(NC(=O)Cc3ccccc3)n[nH]2)C1 (single isomer, unassigned) [Example 162] | 3.01 |
| COCc1cc(C(=O)Nc2cc([C@H]3CC[C@@H](OC(=O)NC4(CC(F)(F)F)CC4)C3)[nH]n2)n(C)n1 [Example 457, (1R,3S)-3-[3-({[3-(methoxymethyl)-1-methyl-1H-pyrazol-5-yl]carbonyl}amino)-1H-pyrazol-5-yl]cyclopentyl [1-(2,2,2-trifluoroethyl)cyclopropyl] carbamate] | 0.38 |
| Cc1cnc(CC(=O)Nc2cc([C@H]3CC[C@@H](OC(=O)N[C@@H](C)CF)C3)[nH]n2)o1 [Example 379, (1R,3S)-3-(3-{[(5-methyl-1,3-oxazol-2-yl)acetyl]amino}-1H-pyrazol-5-yl)cyclopentyl [(2S)-1-fluoropropan-2-yl]carbamate] | 3.05 |
| CCNC(=O)O[C@@H]1CC[C@H](c2cc(NC(=O)Cc3ccc(F)cc3)n[nH]2)C1 [Example 228, (1R,3S)-3-(3-{[(4-fluorophenyl)acetyl]amino}-1H-pyrazol-5-yl)cyclopentyl ethylcarbamate] | 1.84 |
| O=C(Cc1cc(F)cc(F)c1)Nc1cc([C@@H]2CC[C@H](OC(=O)NCC3CCCOC3)C2)[nH]n1 (single isomer, unassigned) [Example 516] | 3.24 |
| Cc1cc(CC(=O)Nc2cc([C@H]3CC[C@@H](OC(=O)N4CCCC[C@@H]4C)C3)[nH]n2)on1 [Example 640, (1R,3S)-3-(3-{[(3-methyl-1,2-oxazol-5-yl)acetyl]amino}-1H-pyrazol-5-yl)cyclopentyl (2S)-2-methylpiperidine-1-carboxylate] | 0.48 |
| CCC(O)CNC(=O)O[C@@H]1CC[C@H](c2cc(NC(=O)Cc3cc(F)cc(F)c3)n[nH]2)C1 (single isomer, unassigned) [Example 543] | 1.96 |
| COc1cc(CC(=O)Nc2cc([C@H]3CC[C@@H](OC(=O)N4C[C@H](O)[C@H]4C)C3)[nH]n2)ccn1 [Example 613, (1R,3S)-3-(3-{[(2-methoxypyridin-4-yl)acetyl]amino}-1H-pyrazol-5-yl)cyclopentyl (2R,3S)-3-hydroxy-2-methylazetidine-1-carboxylate] | 2.98 |
| CC[C@H](C)NC(=O)O[C@@H]1CC[C@H](c2cc(NC(=O)Cc3cnn(CC)n3)n[nH]2)C1 [Example 339, (1R,3S)-3-(3-{[(2-ethyl-2H-1,2,3-triazol-4-yl)acetyl]amino}-1H-pyrazol-5-yl)cyclopentyl (2S)-butan-2-ylcarbamate] | 0.66 |
| COc1cc(CC(=O)Nc2cc([C@@H]3CC[C@H](OC(=O)NCC4CCOCC4)C3)[nH]n2)ccn1 [Example 512, (1S,3R)-3-(3-{[(2-methoxypyridin-4-yl)acetyl]amino}-1H-pyrazol-5-yl)cyclopentyl (tetrahydro-2H-pyran-4-ylmethyl)carbamate] | 3.2 |
| COc1ccc(CC(=O)Nc2cc([C@@H]3CC[C@H](OC(=O)N4C[C@@](C)(O)[C@@H]4C)C3)[nH]n2)cn1 [Example 626, (1S,3R)-3-(3-{[(6-methoxypyridin-3-yl)acetyl]amino}-1H-pyrazol-5-yl)cyclopentyl (2S,3R)-3-hydroxy-2,3-dimethylazetidine-1-carboxylate] | 4.73 |
| Cc1nc(CC(=O)Nc2cc([C@H]3CC[C@@H](OC(=O)NC4(C)CC4)C3)[nH]n2)cs1 [Example 431, (1R,3S)-3-(3-{[(2-methyl-1,3-thiazol-4-yl)acetyl]amino}-1H-pyrazol-5-yl)cyclopentyl (1-methylcyclopropyl)carbamate] | 1.19 |

| SMILES | Ki [nM] |
| --- | --- |
| Cc1ncc(CC(=O)Nc2cc([C@H]3CC[C@@H](OC(=O)N[C@H]4CCC[C@H]4C)C3)[nH]n2)s1 [Example 464, (1R,3S)-3-(3-{[(2-methyl-1,3-thiazol-5-yl)acetyl]amino}-1H-pyrazol-5-yl)cyclopentyl [(1S,2R)-2-methylcyclopentyl]carbamate] | 2.63 |
| Cc1ncc(CC(=O)Nc2cc([C@@H]3CC[C@H](OC(=O)NC(C)C)C3)[nH]n2)s1 [Example 26] | 0.21 |
| CCC(CO)CNC(=O)O[C@@H]1CC[C@H](c2cc(NC(=O)Cc3ccc(OC)cc3)n[nH]2)C1 (single isomer, unassigned) [Example 531] | 1.51 |
| Cc1c(CC(=O)Nc2cc([C@H]3CC[C@@H](OC(=O)NC(C)CC(F)(F)F)C3)[nH]n2)cnn1C (single isomer, unassigned) [Example 400] | 1.29 |
| CC(C)(C)CNC(=O)O[C@@H]1CC[C@H](c2cc(NC(=O)Cc3ccno3)n[nH]2)C1 [Example 418, (1R,3S)-3-{3-[(1,2-oxazol-5-ylacetyl)amino]-1H-pyrazol-5-yl}cyclopentyl (2,2-dimethylpropyl)carbamate] | 2.69 |
| CCC(O)CNC(=O)O[C@@H]1CC[C@H](c2cc(NC(=O)Cc3ccc(OC)cc3)n[nH]2)C1 (single isomer, unassigned) [Example 540] | 2.65 |
| Cc1coc(CC(=O)Nc2cc([C@H]3CC[C@@H](OC(=O)N[C@H](C)CC(F)(F)F)C3)[nH]n2)n1 [Example 395, (1R,3S)-3-(3-{[(4-methyl-1,3-oxazol-2-yl)acetyl]amino}-1H-pyrazol-5-yl)cyclopentyl [(2R)-4,4,4-trifluorobutan-2-yl]carbamate] | 1.43 |
| COc1ccc(CC(=O)Nc2cc([C@H]3CC[C@@H](OC(=O)N4C[C@H](OC)[C@H]4C)C3)[nH]n2)cn1 [Example 620, (1R,3S)-3-(3-{[(6-methoxypyridin-3-yl)acetyl]amino}-1H-pyrazol-5-yl)cyclopentyl (2R,3S)-3-methoxy-2-methylazetidine-1-carboxylate] | 3.91 |
| Cn1ncc(CC(=O)Nc2cc([C@H]3CC[C@@H](OC(=O)NCCC(F)(F)F)C3)[nH]n2)n1 [Example 217, (1R,3S)-3-(3-{[(2-methyl-2H-1,2,3-triazol-4-yl)acetyl]amino}-1H-pyrazol-5-yl)cyclopentyl (3,3,3-trifluoropropyl)carbamate] | 2.22 |
| CC(CC(F)(F)F)NC(=O)O[C@@H]1CC[C@H](c2cc(NC(=O)Cc3cnn(C(C)C)c3)n[nH]2)C1 (single isomer, unassigned) [Example 407] | 1.16 |
| Cc1ccnc(CC(=O)Nc2cc([C@H]3CC[C@@H](OC(=O)NC4(C)CC4)C3)[nH]n2)c1 [Example 425, (1R,3S)-3-(3-{[(4-methylpyridin-2-yl)acetyl]amino}-1H-pyrazol-5-yl)cyclopentyl (1-methylcyclopropyl)carbamate] | 1.05 |
| CC(CC(F)(F)F)NC(=O)O[C@@H]1CC[C@H](c2cc(NC(=O)Cc3ccn(C)n3)n[nH]2)C1 (single isomer, unassigned) [Example 65] | 2.21 |
| CC(C)(C)NC(=O)O[C@@H]1CC[C@H](c2cc(NC(=O)Cc3cc(Cl)ccn3)n[nH]2)C1 [Example 115] | 0.23 |
| CC(CO)CNC(=O)O[C@@H]1CC[C@H](c2cc(NC(=O)Cc3cc(F)cc(F)c3)n[nH]2)C1 (single isomer, unassigned) [Example 538] | 2.72 |
| C[C@]1(O)CC[C@H](NC(=O)O[C@H]2CC[C@@H](c3cc(NC(=O)Cc4ccc(F)cc4)n[nH]3)C2)CC1 [Example 561, (1S,3R)-3-(3-{[(4-fluorophenyl)acetyl]amino}-1H-pyrazol-5-yl)cyclopentyl (trans-4-hydroxy-4-methylcyclohexyl)carbamate] | 1.8 |
| Cc1cnc(CC(=O)Nc2cc([C@H]3CC[C@@H](OC(=O)N4[C@@H](C)C[C@@H]4C)C3)[nH]n2)cn1 [Example 608, (1R,3S)-3-(3-{[(5-methylpyrazin-2-y)acetyl]amino}-1H-pyrazol-5-yl)cyclopentyl (2S,4S)-2,4-dimethylazetidine-1-carboxylate] | 1.11 |
| COC[C@H](C)NC(=O)O[C@@H]1CC[C@H](c2cc(NC(=O)Cc3ccc(OC)nc3)n[nH]2)C1 [Example 519, (1R,3S)-3-(3-{[(6-methoxypyridin-3-yl)acetyl]amino}-1H-pyrazol-5-yl)cyclopentyl [(2S)-1-methoxypropan-2-yl]carbamate] | 0.56 |
| Cc1cnc(CC(=O)Nc2cc([C@H]3CC[C@@H](OC(=O)NC(C)CC(F)(F)F)C3)[nH]n2)cn1 (single isomer, unassigned) [Example 73] | 2.31 |
| Cc1cc(CC(=O)Nc2cc([C@H]3CC[C@@H](OC(=O)N4CCOC[C@H]4C)C3)[nH]n2)on1 [Example 643, (1R,3S)-3-(3-{[(3-methyl-1,2-oxazol-5-yl)acetyl]amino}-1H-pyrazol-5-yl)cyclopentyl (3R)-3-methylmorpholine-4-carboxylate] | 1.84 |

— patent publication US11014911B2, “CDK2 inhibitors” (Pfizer Inc., priority 2019, dated 2021)
